Test results from paper PMC11078216, “Discovery of potent and selective activity-based probes (ABPs) for the deubiquitinating enzyme USP30” (RSC Chemical Biology, 2024).

Target: T1, USP30 (Homo sapiens, UniProt Q70CQ3)
T1 construct: We next determined cellular engagement of endogenous USP30 with IMP-2587 or IMP-2586; endogenous in cells; host or cells: HEK293T
T1 sequence (Q70CQ3 1-517): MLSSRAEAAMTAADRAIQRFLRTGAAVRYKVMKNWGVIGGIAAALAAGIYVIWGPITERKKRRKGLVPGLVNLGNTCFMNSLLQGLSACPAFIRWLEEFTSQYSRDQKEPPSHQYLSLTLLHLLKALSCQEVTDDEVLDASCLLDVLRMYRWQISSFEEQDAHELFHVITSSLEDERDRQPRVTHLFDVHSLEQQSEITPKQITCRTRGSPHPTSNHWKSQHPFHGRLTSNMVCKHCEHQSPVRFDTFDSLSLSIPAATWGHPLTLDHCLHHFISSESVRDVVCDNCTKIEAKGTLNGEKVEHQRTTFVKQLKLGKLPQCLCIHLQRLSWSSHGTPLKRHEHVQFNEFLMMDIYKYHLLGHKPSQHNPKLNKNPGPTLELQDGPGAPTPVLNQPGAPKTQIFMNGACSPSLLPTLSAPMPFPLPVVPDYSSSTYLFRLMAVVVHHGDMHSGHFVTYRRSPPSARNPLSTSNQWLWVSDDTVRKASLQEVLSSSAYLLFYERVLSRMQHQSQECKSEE
Test: In-cell target engagement using HA-Ub-VME competition, immunoblot
Assay type: cell-based
Conditions: HEK293T cells, 1 hour, in-lysate HA-Ub-VME competition, western blot
Method: We next determined cellular engagement of endogenous USP30 with IMP-2587 or IMP-2586. […] In-cell concentration-dependent competition by IMP-2587 and IMP-2586 for USP30 were confirmed below 100 nM probe (Fig. 2b and c), whilst engagement of an exemplar unrelated DUB, UCHL1, occurred only at a much higher concentration (30 000 nM). We hypothesise that incomplete modification of USP30 by HA-Ub-VME is likely due to limited retention of USP30 activity in cell lysates, which have likely had the USP30 transmembrane domain compromised, highlighting the potential utility of a small molecule USP30 ABP applicable directly in intact cells. Direct USP30 target engagement by IMP-2587 and IMP-2586 was confirmed in HEK293T cells following 1 h probe treatment followed by cell lysis and CuAAC bio-orthogonal ligation to capture reagent azido-TAMRA-biotin (AzTB) for IMP-2587 or alkyne-TAMRA-biotin for IMP-2586 (Fig. 3a).[27] […] This unspecific background labelling is presumably due to the previously reported higher off-target CuAAC reactivity of an alkyne-bearing capture reagent, applied here due to incorporation of an azide tag in IMP-2586.[28] Moreover, the labelling of USP30 was further confirmed by biotin pulldown and immunoblotting.
2) USP30 in-cell engagement analysis […]
Protein concentration was determined by DC Protein assay (Bio-RAD). […]

Row | Compound | probe concentration at which in-cell competition for USP30 was confirmed
1 | C#Cc1cccc(-c2cc(NC(=O)CC3CCN(C#N)C3)on2)c1 (centres unmarked) [IMP-2587] | below 100 nM
2 | N#CN1CC[C@@H](NC(=O)c2cc(-c3ccccc3Oc3ccc(N=[N+]=[N-])cc3)n[nH]2)C1 [IMP-2586] | below 100 nM
